Experimental data taken from patent publication US9023865B2, “Compounds that are ERK inhibitors” (Merck Sharp & Dohme Corp., priority 2011, dated 2015).
Like-named read-outs stand apart in the source and are kept apart here.

Molecular target: Active Human ERK2 (hERK2) (Homo sapiens (Human), UniProt P28482)
Assay: Active Human ERK2 (hERK2) Activity Assay (IMAP-FP)
Format: biochemical
How it was run: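 Reaction contains 0.5 nM activated hERK2, 900 nM unlabeled plus 80 nM labeled peptide and 30 μM ATP, run 60 min. Quenched with IMAP binding beads in buffer with 24 mM NaCl; fluorescence polarization read after 60 min binding equilibration.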

[1] = phosphorylated active hERK2, 30 μM ATP, average, read-out: ERK 2 Human average IC50
[2] = read-out: AERK2 IC50 (Active human ERK2 Activity Assay)

Sequence of Active Human ERK2 (hERK2) (P28482 whole entry): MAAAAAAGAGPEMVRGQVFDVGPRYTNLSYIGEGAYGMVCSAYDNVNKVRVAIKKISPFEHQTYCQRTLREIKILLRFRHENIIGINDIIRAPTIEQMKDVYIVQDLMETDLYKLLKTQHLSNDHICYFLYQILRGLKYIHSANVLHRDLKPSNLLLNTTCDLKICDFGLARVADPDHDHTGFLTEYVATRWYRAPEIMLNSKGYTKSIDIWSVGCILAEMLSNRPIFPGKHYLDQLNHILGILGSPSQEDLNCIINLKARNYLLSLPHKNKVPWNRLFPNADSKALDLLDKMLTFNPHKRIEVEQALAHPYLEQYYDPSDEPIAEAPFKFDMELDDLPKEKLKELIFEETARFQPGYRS

Structure (SMILES) | IC50 [1] [nM] | IC50 [2] [nM]
COc1cc(F)ccc1CNC(=O)Nc1cc2[nH]nc(-c3ccnc(C)c3)c2cn1 [Example 520] | 0.44 | 
Cc1cc(-c2n[nH]c3cc(NC(=O)NC[C@H](C)c4ccccc4)ncc23)ccn1 [Example 621] | 1.29 | 
Cc1cc(-c2n[nH]c3cc(NC(=O)NC4CCCC(O)C4)ncc23)ccn1 (stereo not drawn) [Example 380] | 6.18 | 
Cc1cc(-c2n[nH]c3cc(NC(=O)NC4CCN(S(C)(=O)=O)c5ccccc54)ncc23)ccn1 (stereo not drawn) [Example 277] | 1.35 | 
COCC(C)NC(=O)Nc1cc2[nH]nc(-c3ccnc(C)c3)c2cn1 (stereo not drawn) [Example 202] | 11.6 | 
Cc1cc(-c2n[nH]c3cc(NC(=O)NCc4ccc(F)cc4F)ncc23)ccn1 [Example 513] | 1.56 | 
CCOc1ncccc1CNC(=O)Nc1cc2[nH]nc(-c3ccnc(C)c3)c2cn1 [Example 526] | 0.546 | 
Cc1cc(-c2n[nH]c3cc(NC(=O)NCc4c(F)cc(F)cc4F)ncc23)ccn1 [Example 519] | 0.962 | 
Cc1cc(-c2n[nH]c3cc(NC(=O)N[C@@H]4CCN(C)C4)ncc23)ccn1 [Example 596] | 4.87 | 
Cc1cc(-c2n[nH]c3cc(NC(=O)NCc4nccc5ccccc45)ncc23)ccn1 [Example 390] | 2.76 | 
Cc1cc(-c2n[nH]c3cc(NC(=O)Nc4noc5cnccc45)ncc23)ccn1 [Example 360] | 0.378 | 
COC(=O)[C@@H](C)NC(=O)Nc1cc2[nH]nc(-c3ccnc(C)c3)c2cn1 [Example 461] | 31.2 | 
Cc1cc(-c2n[nH]c3cc(NC(=O)NC4CNC4)ncc23)ccn1 [Example 39, 1-azetidin-3-yl-3-[3-(2-methylpyridin-4-yl)-1H-pyrazolo[4,3-c]pyridin-6-yl]urea] | 60.3 | 
Cc1cc(-c2n[nH]c3cc(NC(=O)NCC4(Nc5ccccc5)CCOCC4)ncc23)ccn1 [Example 398] | 1.13 | 
Cc1cc(-c2n[nH]c3cc(NC(=O)NCc4cnccc4C)ncc23)ccn1 [Example 491] | 1.41 | 
C[C@@H](NC(=O)Nc1cc2[nH]nc(-c3ccn4ncnc4c3)c2cn1)c1ccccc1 [Example 294] | 0.665 | 
Cc1cc(-c2n[nH]c3cc(NC(=O)N[C@H](CN)c4ccccc4)ncc23)ccn1 [Example 483] | 0.152 | 
C[C@@H](NC(=O)Nc1cc2[nH]nc(-c3ccc(C#N)nc3)c2cn1)c1ccc(F)cc1 [Example 254] | 4.59 | 
Cc1cc(-c2n[nH]c3cc(NC(=O)N[C@H](C)c4cc(Cl)ccn4)ncc23)ccn1 [Example 229] | 1.06 | 
COCCNC(=O)c1n[nH]c2cc(NC(=O)N[C@H](C)c3ccccc3)ncc12 [Example 116, N-(2-methoxyethyl)-6-({[(1R)-1-phenylethyl]carbamoyl}amino)-1H-pyrazolo[4,3-c]pyridine-3-carboxamide] | 10.7 | 
C[C@@H](NC(=O)Nc1cc2[nH]nc(-c3ccc4nn(C)cc4c3)c2cn1)c1ccc(Cl)cc1 [Example 65, 1-[(1R)-1-(4-chlorophenyl)ethyl]-3-[3-(2-methyl-2H-indazol-5-yl)-1H-pyrazolo[4,3-c]pyridin-6-yl]urea] | 0.562 | 0.2 to 1.7
O=C(NCc1ccccc1)Nc1cc2[nH]nc(C3CC3)c2cn1 [Example 142] | 17.4 | 

Structure (SMILES) | IC50 [1] [nM] | IC50 [2] [nM]
Cc1cc(-c2n[nH]c3cc(NC(=O)NCc4ccc(Cl)cn4)ncc23)ccn1 [Example 478] | 6.01 | 
Cc1cc(-c2n[nH]c3cc(NC(=O)NCc4cnccc4C(F)(F)F)ncc23)ccn1 [Example 510] | 3.66 | 
C[C@@H](NC(=O)Nc1cc2[nH]nc(C3(C)CC3(F)F)c2cn1)c1ccc(F)cc1 (stereo partly drawn) [Example 159, 1-[3-(2,2-difluoro-1-methylcyclopropyl)-1H-pyrazolo[4,3-c]pyridin-6-yl]-3-[(1R)-1-(4-fluorophenyl)ethyl]urea] | 610 | 
C[C@@H](NC(=O)Nc1cc2[nH]nc(-c3ccc(F)cc3)c2cn1)c1ccc(F)c(Cl)c1 [Example 73, 1-[(1R)-1-(3-chloro-4-fluorophenyl)ethyl]-3-[3-(4-fluorophenyl)-1H-pyrazolo[4,3-c]pyridin-6-yl]urea] | 9.34 | 
Cc1cc(-c2n[nH]c3cc(NC(=O)NCC(c4ccccc4)C4(O)CCOCC4)ncc23)ccn1 (stereo not drawn) [Example 385] | 0.939 | 
Cc1cc(-c2n[nH]c3cc(NC(=O)NC4(c5ccc(F)cc5)CC4)ncc23)ccn1 [Example 343] | 18.7 | 
CNC(c1n[nH]c2cc(NC(=O)N[C@H](C)c3ccccc3)ncc12)C(F)(F)F (stereo partly drawn) [Example 564, 1-((R)-1-phenylethyl)-3-(3-(2,2,2-trifluoro-1-(methylamino)ethyl)-1H-pyrazolo[4,3-c]pyridin-6-yl)urea] | 50 | 
Cc1cc(-c2n[nH]c3cc(NC(=O)NCc4cnsn4)ncc23)ccn1 [Example 425] | 0.323 | 
Cc1cc(-c2n[nH]c3cc(NC(=O)NC(C4CC4)C(F)(F)F)ncc23)ccn1 (stereo not drawn) [Example 41, 1-(1-cyclopropyl-2,2,2-trifluoroethyl)-3-[3-(2-methylpyridin-4-yl)-1H-pyrazolo[4,3-c]pyridin-6-yl]urea] | 4.48 | 
COc1ncc(-c2n[nH]c3cc(NC(=O)N[C@H](C)c4ccc(F)cc4)ncc23)cn1 [Example 252] | 0.746 | 
Cc1cc(-c2n[nH]c3cc(NC(=O)NCc4ncco4)ncc23)ccn1 [Example 433] | 2.97 | 
C[C@@H](NC(=O)Nc1cc2[nH]nc(CS(C)(=O)=O)c2cn1)c1ccccc1 [Example 560] | 81.7 | 
CN(C)CCNC(=O)Nc1cc2[nH]nc(-c3ccc(F)cc3)c2cn1 [Example 224] | 24.3 | 
COC(=O)[C@H](C)NC(=O)Nc1cc2[nH]nc(-c3ccnc(C)c3)c2cn1 [Example 455] | 520 | 
Cc1cc(-c2n[nH]c3cc(NC(=O)NC(C)c4ccc(F)cn4)ncc23)ccn1 (stereo not drawn) [Example 364] | 1.66 | 
Cc1cc(-c2n[nH]c3cc(NC(=O)N[C@@H]4CCN(CC(F)(F)F)C4)ncc23)ccn1 [Example 326] | 3.54 | 
Cc1cc(-c2n[nH]c3cc(NC(=O)NC(C)c4ccc(S(C)(=O)=O)cc4)ncc23)ccn1 (stereo not drawn) [Example 376] | 0.582 | 
Cc1cc(-c2n[nH]c3cc(NC(=O)N[C@H](C)c4ccncc4)ncc23)ccn1 [Example 236] | 1.51 | 
Cc1cc(-c2n[nH]c3cc(NC(=O)NC4CCCOC4)ncc23)ccn1 (stereo not drawn) [Example 468] | 8.62 | 
C[C@@H](NC(=O)Nc1cc2[nH]nc(-c3ccc(OC(F)(F)F)cc3)c2cn1)c1ccccc1 [Example 674] | 13.2 | 
C[C@@H](NC(=O)Nc1cc2[nH]nc(-c3ccnc(Cl)c3)c2cn1)c1ccc(F)c(Cl)c1 [Example 75, 1-[(1R)-1-(3-chloro-4-fluorophenyl)ethyl]-3-[3-(2-chloropyridin-4-yl)-1H-pyrazolo[4,3-c]pyridin-6-yl]urea] | 2.64 | 
Cc1cc(-c2n[nH]c3cc(NC(=O)N[C@@H]4CN(C)C[C@H]4c4ccccc4C)ncc23)ccn1 [Example 215, 1-((3S,4R)-1-methyl-4-(o-tolyl)pyrrolidin-3-yl)-3-(3-(2-methylpyridin-4-yl)-1H-pyrazolo[4,3-c]pyridin-6-yl)urea] | 0.537 | 

Structure (SMILES) | IC50 [1] [nM] | IC50 [2] [nM]
Cc1cc(-c2n[nH]c3cc(NC(=O)NCC4CC(C)(C)OC(C)(C)C4)ncc23)ccn1 [Example 370] | 1.45 | 
Cc1cc(-c2n[nH]c3cc(NC(=O)N[C@@H]4CCSc5ccccc54)ncc23)ccn1 [Example 264] | 2.08 | 
C[C@@H](NC(=O)Nc1cc2[nH]nc(CNCC(F)(F)F)c2cn1)c1ccccc1 [Example 561] | 15 | 
C[C@@H](NC(=O)Nc1cc2[nH]nc(-c3ccc(N4CCCCC4)nc3)c2cn1)c1ccc(F)cc1 [Example 244] | 9.85 | 
Cc1cc(-c2n[nH]c3cc(NC(=O)N[C@@H]4CCS(=O)(=O)c5ccccc54)ncc23)ccn1 [Example 275] | 1.61 | 
Cc1cc(-c2n[nH]c3cc(NC(=O)N[C@H]4CN(C)C[C@@H]4C4CCCCC4)ncc23)ccn1 [Example 208] | 6.73 | 
COC[C@@H](NC(=O)Nc1cc2[nH]nc(-c3ccnc(C)c3)c2cn1)c1cc(F)ccn1 [Example 169] | 7.33 | 
Cc1cc(-c2n[nH]c3cc(NC(=O)N[C@H](CO)c4cccc5cc[nH]c45)ncc23)ccn1 [Example 362] | 0.288 | 
Cc1cc(-c2n[nH]c3cc(NC(=O)NCc4nccs4)ncc23)ccn1 [Example 436] | 2.14 | 
COc1ccc(-c2n[nH]c3cc(NC(=O)N[C@H](C)c4ccccc4)ncc23)cn1 [Example 650] | 0.318 | 
C[C@@H](NC(=O)Nc1cc2[nH]nc(-c3ccc(-n4nccn4)cc3)c2cn1)c1ccc(F)cc1 [Example 247] | 45 | 
COC[C@@H](NC(=O)Nc1cc2[nH]nc(-c3ccc(C(F)(F)F)nc3)c2cn1)c1ccc(F)cc1 [Example 305] | 24.7 | 
Cc1cc(-c2n[nH]c3cc(NC(=O)NC4COC4)ncc23)ccn1 [Example 465] | 320 | 
COCCNC(=O)Nc1cc2[nH]nc(-c3ccc(OC(C)C)nc3)c2cn1 [Example 630] | 2.12 | 
O=C(Nc1cc2[nH]nc(C3CC3)c2cn1)NC1CCCOc2ccccc21 (stereo not drawn) [Example 153] | 2.28 | 
Cc1cc(-c2n[nH]c3c(F)c(NC(=O)N[C@H](CO)c4ccccc4)ncc23)ccn1 [Example 544] | 1.28 | 
C/C=C/c1n[nH]c2cc(NC(=O)N[C@H](C)c3ccccc3)ncc12 [Example 67, 1-[(1R)-1-phenylethyl]-3-{3-[(1E)-prop-1-en-1-yl]-1H-pyrazolo[4,3-c]pyridin-6-yl}urea] | 0.428 | 0.2 to 1.7
C[C@@H](NC(=O)Nc1cc2[nH]nc(-c3ccc(-n4ccnn4)cc3)c2cn1)c1ccc(F)cc1 [Example 242, 1-[(1R)-1-(4-fluorophenyl)ethyl]-3-{3-[4-(1H-1,2,3-triazol-1-yl)phenyl]-1H-pyrazolo[4,3-c]pyridin-6-yl}urea] | 5.54 | 
Cc1cc(-c2n[nH]c3cc(NC(=O)NCCc4ccccn4)ncc23)ccn1 [Example 47, 1-[3-(2-methylpyridin-4-yl)-1H-pyrazolo[4,3-c]pyridin-6-yl]-3-(2-pyridin-2-ylethyl)urea] | 2.34 | 
C[C@@H](NC(=O)Nc1cc2[nH]nc(C(=O)NCCC3(O)CCCC3)c2cn1)c1ccccc1 [Example 126] | 8.33 | 
